Laboratory results published in ChEMBL document CHEMBL4229455, “Synthesis and anticancer activity of novel bisindolylhydroxymaleimide derivatives with potent GSK-3 kinase inhibition” (Bioorg Med Chem, 2018).

Tests used:
Assay type in all cases: functional
MDA-MB-435 [1] = assay: Cytotoxicity against human MDA-MB-435 cells assessed as cell growth at 1 uM after 48 hrs by SRB assay relative to control; conditions: MDA-MB-435, 48 h, read-out: Activity
SNB-75 [2] = assay: Cytotoxicity against human SNB75 cells assessed as cell growth at 1 uM after 48 hrs by SRB assay relative to control; conditions: SNB-75, 48 h, read-out: Activity
SW-620 = assay: Cytotoxicity against human SW620 cells after 48 hrs by SRB assay; conditions: SW-620, 48 h
KM12 [3] = assay: Cytotoxicity against human KM12 cells assessed as cell growth at 1 uM after 48 hrs by SRB assay relative to control; conditions: KM12, 48 h, read-out: Activity
SK-MEL-5 [4] = assay: Cytotoxicity against human SK-MEL-5 cells after 48 hrs by SRB assay; conditions: SK-MEL-5, 48 h; for CC50: read-out: LC50 (the source's name)
UACC-257 = assay: Cytotoxicity against human UACC257 cells after 48 hrs by SRB assay; conditions: UACC-257, 48 h
CCRF-CEM = assay: Cytotoxicity against human CCRF-CEM cells assessed as cell growth at 0.1 uM after 48 hrs by SRB assay relative to control; conditions: read-out: Activity
Malme-3M [5] = assay: Cytotoxicity against human MALME-3M cells assessed as cell growth at 1 uM after 48 hrs by SRB assay relative to control; conditions: read-out: Activity
Hs-578T [6] = assay: Cytotoxicity against human Hs 578T cells assessed as cell growth at 1 uM after 48 hrs by SRB assay relative to control; conditions: read-out: Activity
OVCAR-8 = assay: Cytotoxicity against human OVCAR8 cells after 48 hrs by SRB assay; conditions: OVCAR-8, 48 h
SK-OV-3 = assay: Cytotoxicity against human SKOV3 cells assessed as cell growth at 0.01 uM after 48 hrs by SRB assay relative to control; conditions: SK-OV-3, 48 h, read-out: Activity
786-0 = assay: Cytotoxicity against human 786-O cells after 48 hrs by SRB assay; conditions: 786-0, 48 h
SF-295 = assay: Cytotoxicity against human SF295 cells assessed as cell growth at 100 uM after 48 hrs by SRB assay relative to control; conditions: SF-295, 48 h, read-out: Activity
SK-MEL-5 [7] = assay: Cytotoxicity against human SK-MEL-5 cells assessed as cell growth at 0.01 uM after 48 hrs by SRB assay relative to control; conditions: SK-MEL-5, 48 h, read-out: Activity
IGROV-1 = assay: Cytotoxicity against human IGROV1 cells assessed as cell growth at 0.01 uM after 48 hrs by SRB assay relative to control; conditions: IGROV-1, 48 h, read-out: Activity
Hs-578T [8] = assay: Cytotoxicity against human Hs 578T cells assessed as cell growth at 0.1 uM after 48 hrs by SRB assay relative to control; conditions: read-out: Activity
UACC-62 [9] = assay: Cytotoxicity against human UACC62 cells assessed as cell growth at 0.01 uM after 48 hrs by SRB assay relative to control; conditions: UACC-62, 48 h, read-out: Activity
Malme-3M [10] = assay: Cytotoxicity against human MALME-3M cells assessed as cell growth at 100 uM after 48 hrs by SRB assay relative to control; conditions: read-out: Activity
SR [11] = assay: Cytotoxicity against human SR cells assessed as cell growth at 100 uM after 48 hrs by SRB assay relative to control; conditions: read-out: Activity
CAKI-1 [12] = assay: Cytotoxicity against human Caki1 cells after 48 hrs by SRB assay; conditions: CAKI-1, 48 h
HCT-15 = assay: Cytotoxicity against human HCT15 cells after 48 hrs by SRB assay; conditions: HCT-15, 48 h
MCF7 = assay: Cytotoxicity against human MCF7 cells assessed as cell growth at 0.01 uM after 48 hrs by SRB assay relative to control; conditions: MCF7, 48 h, read-out: Activity
SNB-75 [13] = assay: Cytotoxicity against human SNB75 cells assessed as cell growth at 100 uM after 48 hrs by SRB assay relative to control; conditions: SNB-75, 48 h, read-out: Activity
HCC 2998 [14] = assay: Cytotoxicity against human HCC2998 cells assessed as cell growth at 1 uM after 48 hrs by SRB assay relative to control; conditions: HCC 2998, 48 h, read-out: Activity
PC-3 = assay: Cytotoxicity against human PC3 cells assessed as cell growth at 0.01 uM after 48 hrs by SRB assay relative to control; conditions: PC-3, 48 h, read-out: Activity
SK-MEL-28 = assay: Cytotoxicity against human SK-MEL-28 cells assessed as cell growth at 0.01 uM after 48 hrs by SRB assay relative to control; conditions: SK-MEL-28, 48 h, read-out: Activity
HCC 2998 [15] = assay: Cytotoxicity against human HCC2998 cells after 48 hrs by SRB assay; conditions: HCC 2998, 48 h
HL-60(TB) = assay: Cytotoxicity against human HL-60(TB) cells after 48 hrs by SRB assay; conditions: HL-60, 48 h
SR [16] = assay: Cytotoxicity against human SR cells after 48 hrs by SRB assay
NCI/ADR-RES = assay: Cytotoxicity against human NCI-ADR-RES cells assessed as cell growth at 100 uM after 48 hrs by SRB assay relative to control; conditions: read-out: Activity
MDA-MB-435 [17] = assay: Cytotoxicity against human MDA-MB-435 cells after 48 hrs by SRB assay; conditions: MDA-MB-435, 48 h
COLO 205 = assay: Cytotoxicity against human COLO205 cells assessed as cell growth at 100 uM after 48 hrs by SRB assay relative to control; conditions: COLO 205, 48 h, read-out: Activity
KM12 [18] = assay: Cytotoxicity against human KM12 cells assessed as cell growth at 0.1 uM after 48 hrs by SRB assay relative to control; conditions: KM12, 48 h, read-out: Activity
UACC-62 [19] = assay: Cytotoxicity against human UACC62 cells assessed as cell growth at 1 uM after 48 hrs by SRB assay relative to control; conditions: UACC-62, 48 h, read-out: Activity
UACC-62 [20] = assay: Cytotoxicity against human UACC62 cells assessed as cell growth at 100 uM after 48 hrs by SRB assay relative to control; conditions: UACC-62, 48 h, read-out: Activity
CAKI-1 [21] = assay: Cytotoxicity against human Caki1 cells assessed as cell growth at 0.1 uM after 48 hrs by SRB assay relative to control; conditions: CAKI-1, 48 h, read-out: Activity
Hs-578T [22] = assay: Cytotoxicity against human Hs 578T cells after 48 hrs by SRB assay
HT-29 = assay: Cytotoxicity against human HT-29 cells after 48 hrs by SRB assay; conditions: HT-29, 48 h

N#CCCCCCn1cc(C2=C(c3cn(CCCCCC#N)c4ccccc34)C(=O)N(O)C2=O)c2ccccc21
growth at 1 µM (MDA-MB-435 [1]): 96% | growth at 1 µM (SNB-75 [2]): 80% | GI50 (SW-620): 4.76 µM | LC50 (SW-620): > 100 µM | TGI (SW-620): > 100 µM | growth at 1 µM (KM12 [3]): 102% | GI50 (SK-MEL-5 [4]): 2.92 µM | TGI (SK-MEL-5 [4]): 10.6 µM | CC50 (SK-MEL-5 [4]): 42.8 µM | GI50 (UACC-257): 12.1 µM | LC50 (UACC-257): > 100 µM | TGI (UACC-257): 55.6 µM | growth at 0.1 µM (CCRF-CEM): 85% | growth at 1 µM (Malme-3M [5]): 107% | growth at 1 µM (Hs-578T [6]): 88% | GI50 (OVCAR-8): 12.3 µM | LC50 (OVCAR-8): > 100 µM | TGI (OVCAR-8): > 100 µM | growth at 0.01 µM (SK-OV-3): 98% | GI50 (786-0): 10.3 µM | LC50 (786-0): > 100 µM | TGI (786-0): > 100 µM | growth at 100 µM (SF-295): -37% | growth at 0.01 µM (SK-MEL-5 [7]): 99% | growth at 0.01 µM (IGROV-1): 104% | growth at 0.1 µM (Hs-578T [8]): 91% | growth at 0.01 µM (UACC-62 [9]): 95% | growth at 100 µM (Malme-3M [10]): -14% | growth at 100 µM (SR [11]): -14% | GI50 (CAKI-1 [12]): 21.3 µM | LC50 (CAKI-1 [12]): > 100 µM | TGI (CAKI-1 [12]): > 100 µM | GI50 (HCT-15): 3.88 µM | LC50 (HCT-15): > 100 µM | TGI (HCT-15): > 100 µM | growth at 0.01 µM (MCF7): 91% | growth at 100 µM (SNB-75 [13]): -32% | growth at 1 µM (HCC 2998 [14]): 108% | growth at 0.01 µM (PC-3): 93% | growth at 0.01 µM (SK-MEL-28): 102% | GI50 (HCC 2998 [15]): 14.2 µM | LC50 (HCC 2998 [15]): > 100 µM | TGI (HCC 2998 [15]): > 100 µM | GI50 (HL-60(TB)): 2.54 µM | LC50 (HL-60(TB)): > 100 µM | TGI (HL-60(TB)): 6.44 µM | GI50 (SR [16]): 3.55 µM | LC50 (SR [16]): > 100 µM | TGI (SR [16]): 9.48 µM | growth at 100 µM (NCI/ADR-RES): 24% | GI50 (MDA-MB-435 [17]): 2.74 µM | LC50 (MDA-MB-435 [17]): > 100 µM | TGI (MDA-MB-435 [17]): 8.31 µM | growth at 100 µM (COLO 205): -22% | growth at 0.1 µM (KM12 [18]): 97% | growth at 1 µM (UACC-62 [19]): 87% | growth at 100 µM (UACC-62 [20]): -55% | growth at 0.1 µM (CAKI-1 [21]): 95% | GI50 (Hs-578T [22]): 3.97 µM | LC50 (50% lethal concentration) (Hs-578T [22]): > 100 µM | TGI (Hs-578T [22]): > 100 µM | GI50 (HT-29): 10.2 µM | LC50 (HT-29): > 100 µM | TGI (HT-29): 40.7 µM

Cn1cc(C2=C(c3cn(C)c4ncccc34)C(=O)NC2=O)c2ccccc21
growth at 1 µM (MDA-MB-435 [1]): 40% | growth at 1 µM (SNB-75 [2]): 32% | GI50 (SW-620): 3.61 µM | TGI (SW-620): 32.6 µM | growth at 1 µM (KM12 [3]): 82% | GI50 (SK-MEL-5 [4]): 2.15 µM | TGI (SK-MEL-5 [4]): 5.8 µM | CC50 (SK-MEL-5 [4]): 21.8 µM | GI50 (UACC-257): 6.32 µM | TGI (UACC-257): 54.8 µM | growth at 0.1 µM (CCRF-CEM): 81% | growth at 1 µM (Malme-3M [5]): 110% | growth at 1 µM (Hs-578T [6]): 48% | GI50 (OVCAR-8): 4.23 µM | TGI (OVCAR-8): 39.9 µM | growth at 0.01 µM (SK-OV-3): 104% | GI50 (786-0): 3.59 µM | TGI (786-0): 23.7 µM | growth at 100 µM (SF-295): -20% | growth at 0.01 µM (SK-MEL-5 [7]): 102% | growth at 0.01 µM (IGROV-1): 98% | growth at 0.1 µM (Hs-578T [8]): 81% | growth at 0.01 µM (UACC-62 [9]): 97% | growth at 100 µM (Malme-3M [10]): -11% | growth at 100 µM (SR [11]): -21% | GI50 (CAKI-1 [12]): 1.19 µM | TGI (CAKI-1 [12]): 10.2 µM | GI50 (HCT-15): 3.49 µM | TGI (HCT-15): 60.5 µM | growth at 0.01 µM (MCF7): 93% | growth at 100 µM (SNB-75 [13]): -51% | growth at 1 µM (HCC 2998 [14]): 85% | growth at 0.01 µM (PC-3): 99% | growth at 0.01 µM (SK-MEL-28): 97% | GI50 (HCC 2998 [15]): 4.35 µM | TGI (HCC 2998 [15]): 28.2 µM | GI50 (HL-60(TB)): 4.05 µM | TGI (HL-60(TB)): 17.9 µM | GI50 (SR [16]): 1.04 µM | TGI (SR [16]): 18.4 µM | growth at 100 µM (NCI/ADR-RES): -19% | GI50 (MDA-MB-435 [17]): 0.648 µM | TGI (MDA-MB-435 [17]): 19.3 µM | growth at 100 µM (COLO 205): -65% | growth at 0.1 µM (KM12 [18]): 102% | growth at 1 µM (UACC-62 [19]): 89% | growth at 100 µM (UACC-62 [20]): -51% | growth at 0.1 µM (CAKI-1 [21]): 86% | GI50 (Hs-578T [22]): 0.847 µM | TGI (Hs-578T [22]): 4.08 µM | GI50 (HT-29): 3.07 µM | TGI (HT-29): 20.6 µM
